# Laboratory results from PubChem BioAssay (NCI).
#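 Cells were grown in 96-well plates and exposed to each compound for 48 hours at five concentrations; endpoints were interpolated linearly between bracketing concentrations, or set to the highest concentration if not reached. GI50 is the concentration that inhibits growth by half. TGI marks complete inhibition of growth.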
# Key:
# Assay in all cases: inhibition of tumour cell growth, NCI panel, 48 h
# A498 renal = system: A498 renal
# HS 578T breast = system: HS 578T breast
# NCI-H226 lung = system: NCI-H226 lung
# SK-MEL-5 melanoma = system: SK-MEL-5 melanoma
# CAKI-1 renal = system: CAKI-1 renal
# BT-549 breast = system: BT-549 breast
# UACC-257 melanoma = system: UACC-257 melanoma
# MALME-3M melanoma = system: MALME-3M melanoma
# OVCAR-5 ovarian = system: OVCAR-5 ovarian
# UACC-62 melanoma = system: UACC-62 melanoma
# NCI-H23 lung = system: NCI-H23 lung
# DU-145 prostate = system: DU-145 prostate
# SNB-19 CNS = system: SNB-19 CNS
# EKVX NSCLC = system: EKVX NSCLC
# SK-OV-3 ovarian = system: SK-OV-3 ovarian
# T-47D breast = system: T-47D breast
# SK-MEL-28 melanoma = system: SK-MEL-28 melanoma
# HL-60(TB) leukemia = system: HL-60(TB) leukemia
# CCRF-CEM leukemia = system: CCRF-CEM leukemia
# HOP-62 NSCLC = system: HOP-62 NSCLC
# LOX IMVI melanoma = system: LOX IMVI melanoma
# OVCAR-8 ovarian = system: OVCAR-8 ovarian
# U251 CNS = system: U251 CNS
# COLO 205 colon = system: COLO 205 colon
# MDA-MB-435 = system: MDA-MB-435
# OVCAR-4 ovarian = system: OVCAR-4 ovarian
# SF-295 CNS = system: SF-295 CNS
# UO-31 renal = system: UO-31 renal
# SW-620 colon = system: SW-620 colon
# SK-MEL-2 melanoma = system: SK-MEL-2 melanoma
# SN12C renal = system: SN12C renal
# ACHN renal = system: ACHN renal
# HOP-92 NSCLC = system: HOP-92 NSCLC
# PC-3 prostate = system: PC-3 prostate
# KM12 colon = system: KM12 colon
# K-562 leukemia = system: K-562 leukemia
# HCT-116 colon = system: HCT-116 colon
# HCC-2998 colon = system: HCC-2998 colon
# HT29 colon = system: HT29 colon
# RXF 393 renal = system: RXF 393 renal
# NCI-H522 lung = system: NCI-H522 lung
# MOLT-4 leukemia = system: MOLT-4 leukemia
# TK-10 renal = system: TK-10 renal
# MDA-MB-231 breast = system: MDA-MB-231 breast
# IGROV1 ovarian = system: IGROV1 ovarian
# NCI-H460 lung = system: NCI-H460 lung
# SF-268 CNS = system: SF-268 CNS
# SNB-75 CNS = system: SNB-75 CNS
# SF-539 CNS = system: SF-539 CNS
# 786-0 renal = system: 786-0 renal
# OVCAR-3 ovarian = system: OVCAR-3 ovarian
# RPMI-8226 leukemia = system: RPMI-8226 leukemia
# HCT-15 colon = system: HCT-15 colon
# NCI/ADR-RES ovarian = system: NCI/ADR-RES ovarian
# M14 melanoma = system: M14 melanoma
smiles,measurement,setting,value
CCCCCCCCCCCCCCCCCC1=NCCN1C(=O)OCCO,GI50,A498 renal,9290 nM
same,TGI,A498 renal,56700 nM
same,GI50,HS 578T breast,4080 nM
same,TGI,HS 578T breast,> 100000 nM
same,GI50,NCI-H226 lung,6240 nM
same,TGI,NCI-H226 lung,45200 nM
same,GI50,SK-MEL-5 melanoma,2930 nM
same,TGI,SK-MEL-5 melanoma,10300 nM
same,GI50,CAKI-1 renal,1750 nM
same,TGI,CAKI-1 renal,3830 nM
same,GI50,BT-549 breast,3190 nM
same,TGI,BT-549 breast,18300 nM
same,GI50,UACC-257 melanoma,2280 nM
same,TGI,UACC-257 melanoma,5680 nM
same,GI50,MALME-3M melanoma,12900 nM
same,TGI,MALME-3M melanoma,42900 nM
same,GI50,OVCAR-5 ovarian,3350 nM
same,TGI,OVCAR-5 ovarian,26400 nM
same,GI50,UACC-62 melanoma,1870 nM
same,TGI,UACC-62 melanoma,3460 nM
same,GI50,NCI-H23 lung,5640 nM
same,TGI,NCI-H23 lung,> 100000 nM
same,GI50,DU-145 prostate,1840 nM
same,TGI,DU-145 prostate,3370 nM
same,GI50,SNB-19 CNS,3390 nM
same,TGI,SNB-19 CNS,12900 nM
same,GI50,EKVX NSCLC,1750 nM
same,TGI,EKVX NSCLC,4240 nM
same,GI50,SK-OV-3 ovarian,2500 nM
same,TGI,SK-OV-3 ovarian,7040 nM
same,GI50,T-47D breast,2890 nM
same,TGI,T-47D breast,9480 nM
same,GI50,SK-MEL-28 melanoma,5920 nM
same,TGI,SK-MEL-28 melanoma,24500 nM
CC[PH+](CC)CC.O=COC1OC([S-])C(OC=O)C(OC=O)C1OC=O.[Au+] (centres undefined),GI50,HL-60(TB) leukemia,2600 nM
same,TGI,HL-60(TB) leukemia,6600 nM
same,GI50,CCRF-CEM leukemia,640 nM
same,TGI,CCRF-CEM leukemia,4100 nM
same,GI50,HOP-62 NSCLC,1580 nM
same,TGI,HOP-62 NSCLC,3200 nM
same,GI50,A498 renal,1860 nM
same,TGI,A498 renal,3290 nM
same,GI50,HS 578T breast,775 nM
same,TGI,HS 578T breast,4760 nM
same,GI50,LOX IMVI melanoma,902 nM
same,TGI,LOX IMVI melanoma,2410 nM
same,GI50,OVCAR-8 ovarian,2130 nM
same,TGI,OVCAR-8 ovarian,5550 nM
same,GI50,U251 CNS,368 nM
same,TGI,U251 CNS,1470 nM
same,GI50,NCI-H226 lung,1960 nM
same,TGI,NCI-H226 lung,4230 nM
same,GI50,SK-MEL-5 melanoma,1270 nM
same,TGI,SK-MEL-5 melanoma,2630 nM
same,GI50,CAKI-1 renal,1710 nM
same,TGI,CAKI-1 renal,3080 nM
same,GI50,COLO 205 colon,2230 nM
same,TGI,COLO 205 colon,4700 nM
same,GI50,BT-549 breast,1250 nM
same,TGI,BT-549 breast,2540 nM
same,GI50,UACC-257 melanoma,1190 nM
same,TGI,UACC-257 melanoma,3290 nM
same,GI50,MDA-MB-435,1430 nM
same,TGI,MDA-MB-435,2970 nM
same,GI50,OVCAR-4 ovarian,1890 nM
same,TGI,OVCAR-4 ovarian,4530 nM
same,GI50,SF-295 CNS,1800 nM
same,TGI,SF-295 CNS,3240 nM
same,GI50,UO-31 renal,1690 nM
same,TGI,UO-31 renal,3050 nM
same,GI50,SW-620 colon,1850 nM
same,TGI,SW-620 colon,3830 nM
same,GI50,SK-MEL-2 melanoma,1470 nM
same,TGI,SK-MEL-2 melanoma,3380 nM
same,GI50,MALME-3M melanoma,1240 nM
same,TGI,MALME-3M melanoma,2580 nM
same,GI50,OVCAR-5 ovarian,1890 nM
same,TGI,OVCAR-5 ovarian,3530 nM
same,GI50,SN12C renal,1440 nM
same,TGI,SN12C renal,2750 nM
same,GI50,ACHN renal,1780 nM
same,TGI,ACHN renal,3160 nM
same,GI50,HOP-92 NSCLC,2040 nM
same,TGI,HOP-92 NSCLC,3660 nM
same,GI50,PC-3 prostate,1660 nM
same,TGI,PC-3 prostate,3540 nM
same,GI50,UACC-62 melanoma,1060 nM
same,TGI,UACC-62 melanoma,2310 nM
same,GI50,KM12 colon,1610 nM
same,TGI,KM12 colon,3190 nM
same,GI50,K-562 leukemia,605 nM
same,TGI,K-562 leukemia,> 100000 nM
same,GI50,NCI-H23 lung,1470 nM
same,TGI,NCI-H23 lung,3220 nM
same,GI50,HCT-116 colon,1560 nM
same,TGI,HCT-116 colon,3150 nM
same,GI50,DU-145 prostate,1580 nM
same,TGI,DU-145 prostate,3330 nM
same,GI50,HCC-2998 colon,1600 nM
same,TGI,HCC-2998 colon,3030 nM
same,GI50,SNB-19 CNS,1340 nM
same,TGI,SNB-19 CNS,2610 nM
same,GI50,HT29 colon,1650 nM
same,TGI,HT29 colon,5300 nM
same,GI50,RXF 393 renal,1350 nM
same,TGI,RXF 393 renal,2720 nM
same,GI50,NCI-H522 lung,1170 nM
same,TGI,NCI-H522 lung,3970 nM
same,GI50,EKVX NSCLC,1740 nM
same,TGI,EKVX NSCLC,3320 nM
same,GI50,MOLT-4 leukemia,2200 nM
same,TGI,MOLT-4 leukemia,7610 nM
same,GI50,TK-10 renal,1740 nM
same,TGI,TK-10 renal,3390 nM
same,GI50,MDA-MB-231 breast,1460 nM
same,TGI,MDA-MB-231 breast,2820 nM
same,GI50,IGROV1 ovarian,1200 nM
same,TGI,IGROV1 ovarian,2620 nM
same,GI50,NCI-H460 lung,1710 nM
same,TGI,NCI-H460 lung,3690 nM
same,GI50,SF-268 CNS,1170 nM
same,TGI,SF-268 CNS,3150 nM
same,GI50,SNB-75 CNS,374 nM
same,TGI,SNB-75 CNS,1770 nM
same,GI50,SF-539 CNS,1140 nM
same,TGI,SF-539 CNS,2370 nM
same,GI50,786-0 renal,1510 nM
same,TGI,786-0 renal,2850 nM
same,GI50,OVCAR-3 ovarian,1430 nM
same,TGI,OVCAR-3 ovarian,2990 nM
same,GI50,SK-OV-3 ovarian,1850 nM
same,TGI,SK-OV-3 ovarian,3360 nM
same,GI50,RPMI-8226 leukemia,1350 nM
same,TGI,RPMI-8226 leukemia,5070 nM
same,GI50,HCT-15 colon,1140 nM
same,TGI,HCT-15 colon,2560 nM
same,GI50,T-47D breast,1960 nM
same,TGI,T-47D breast,6470 nM
same,GI50,SK-MEL-28 melanoma,907 nM
same,TGI,SK-MEL-28 melanoma,2150 nM
same,GI50,NCI/ADR-RES ovarian,2210 nM
same,TGI,NCI/ADR-RES ovarian,5030 nM
same,GI50,M14 melanoma,1150 nM
same,TGI,M14 melanoma,2810 nM
